Measurements published in ChEMBL document CHEMBL5214926, “Recent contribution of medicinally active 2-aminothiophenes: A privileged scaffold for drug discovery” (Eur J Med Chem, 2022).
Converted amounts (≈) assume the structure as drawn. “And” between values parts separate entries of the source, which are not always exact repeats. Equal values may be shown once.

Key:
[1] = tested on: JAR; test: Cytotoxicity against human JAR cells assessed as cell growth inhibition at 10 uM relative to control; format: functional
[2] = tested on: Trichophyton tonsurans; test: Antifungal activity against Trichophyton tonsurans 700 assessed as fungal growth inhibition by spectrophotometry; format: functional
[3] = tested on: Trichophyton rubrum; test: Antifungal activity against Trichophyton rubrum 6753 assessed as fungal growth inhibition by spectrophotometry; format: functional
[4] = tested on: Epidermophyton floccosum; test: Antifungal activity against Epidermophyton floccosum 6999 assessed as fungal growth inhibition by spectrophotometry; format: functional
[5] = tested on: Candida parapsilosis; test: Antifungal activity against Candida parapsilosis ATCC 22019 assessed as fungal growth inhibition by spectrophotometry; format: functional; settings: Lodderomyces parapsilosis
[6] = tested on: Epidermophyton floccosum; test: Antifungal activity against Epidermophyton floccosum 6754 assessed as fungal growth inhibition by spectrophotometry; format: functional
[7] = tested on: Enterococcus faecalis; test: Antibacterial activity against Enterococcus faecalis assessed as bacterial growth inhibition; format: functional
[8] = tested on: Heyndrickxia coagulans; test: Antibacterial activity against Bacillus coagulans assessed as bacterial growth inhibition; format: functional
[9] = tested on: Escherichia coli; test: Antibacterial activity against Escherichia coli assessed as bacterial growth inhibition; format: functional
[10] = tested on: K562; test: Cytotoxicity against human K562 cells assessed as cell growth inhibition; format: functional, cell-based
[11] = tested on: Trichophyton mentagrophytes; test: Antifungal activity against Trichophyton mentagrophytes 5431 assessed as fungal growth inhibition by spectrophotometry; format: functional
[12] = tested on: Trichophyton mentagrophytes; test: Antifungal activity against Trichophyton mentagrophytes 5432 assessed as fungal growth inhibition by spectrophotometry; format: functional
[13] = tested on: Leishmania amazonensis; test: Anti-promastigote activity against Leishmania amazonensis (IFLA/BR/67/PH8) assessed as promastigote growth inhibition incubated for 72 hrs by microscopic analysis; format: functional, organism-based; settings: Leishmania amazonensis, IFLA/BR/67/PH8, 72 h
[14] = tested on: DNA; test: Binding affinity to parasitic DNA assessed as intrinsic binding constant by UV-visible absorption spectrophotometry; format: nucleic-acid assay
[15] = target: T1, TGF-beta receptor type-1 (Homo sapiens, UniProt P36897); test: Inhibition of human TGF-beta-R1 using TMB substrate incubated for 2.5 hrs by microplate reader analysis
T1 sequence (P36897 whole entry): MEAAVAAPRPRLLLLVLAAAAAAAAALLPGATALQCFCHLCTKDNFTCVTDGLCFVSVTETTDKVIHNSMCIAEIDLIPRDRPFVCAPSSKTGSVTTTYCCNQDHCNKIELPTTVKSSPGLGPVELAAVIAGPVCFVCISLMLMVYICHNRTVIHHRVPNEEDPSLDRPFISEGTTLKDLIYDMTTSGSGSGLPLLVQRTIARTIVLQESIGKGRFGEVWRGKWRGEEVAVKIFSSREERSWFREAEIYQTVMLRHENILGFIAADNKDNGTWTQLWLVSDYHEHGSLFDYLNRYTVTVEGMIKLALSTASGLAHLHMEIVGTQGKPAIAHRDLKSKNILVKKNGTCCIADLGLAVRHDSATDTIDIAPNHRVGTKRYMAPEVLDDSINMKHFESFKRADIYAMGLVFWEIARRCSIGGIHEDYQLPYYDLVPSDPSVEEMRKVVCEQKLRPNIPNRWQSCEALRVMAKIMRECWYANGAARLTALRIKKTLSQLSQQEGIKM

[16] = tested on: PC-3; test: Cytotoxicity against human PC-3 cells assessed as cell growth inhibition incubated for 2 days by MTT assay; format: functional, cell-based; settings: PC-3, 48 h
[17] = tested on: MCF7; test: Cytotoxicity against human MCF7 cells assessed as cell growth inhibition incubated for 2 days by MTT assay; format: functional, cell-based; settings: MCF7, 48 h
[18] = Cytotoxicity against human WI-38 cells assessed as cell growth inhibition incubated for 2 days by MTT assay; format: toxicity, cell-based
[19] = tested on: HepG2; test: Cytotoxicity against human HepG2 cells assessed as cell growth inhibition incubated for 2 days by MTT assay; format: functional, cell-based; settings: HepG2, 48 h
[20] = organism: Homo sapiens; test: Inhibition of CaCC (unknown origin) current potentiation at 10 uM relative to control
[21] = tested on: Trichophyton tonsurans; test: Antifungal activity against Trichophyton tonsurans 2822 assessed as fungal growth inhibition by spectrophotometry; format: functional
[22] = Inhibition of CaCC current potentiation in rat cerebellar Purkinje neurons by electrophysiological method
[23] = Inhibition of CaCC (unknown origin) current potentiation; design: species or system Homo sapiens
[24] = tested on: Perkinsus sp.; test: Antiprotozoal activity against Perkinsus sp. assessed as reduction in hypnospore viability at 500 uM measured after 48 hrs by microscopic analysis relative to control; format: functional
[25] = tested on: Candida tropicalis; test: Antifungal activity against Candida tropicalis URM 4262 assessed as fungal growth inhibition around drug-chitosan film at 1.28 mg/ml; format: functional; settings: read-out: DIZ
[26] = tested on: Pseudomonas aeruginosa; test: Antibacterial activity against Pseudomonas aeruginosa NCIM 2036 assessed as bacterial growth inhibition incubated for 8 hrs by absorbance based assay; format: functional
[27] = tested on: Escherichia coli; test: Antibacterial activity against Escherichia coli NCIM 2688 assessed as bacterial growth inhibition incubated for 8 hrs by absorbance based assay; format: functional
[28] = tested on: Staphylococcus aureus; test: Antibacterial activity against Staphylococcus aureus NCIM 2010 assessed as reduction in bacterial growth incubated for 8 hrs by absorbance based assay; format: functional, organism-based; settings: NCIM 2010, 8 h
[29] = tested on: Bacillus subtilis; test: Antibacterial activity against Bacillus subtilis NCIM 2079 assessed as bacterial growth inhibition incubated for 8 hrs by absorbance based assay; format: functional
[30] = tested on: Mycobacterium tuberculosis; test: Antimycobacterial activity against Mycobacterium tuberculosis H37Ra incubated for 8 to 12 days by XTT reduction menadione assay; format: functional; settings: time 8-12 day
[31] = tested on: Staphylococcus aureus; test: Antibacterial activity against Staphylococcus aureus NCIM 2010 assessed as bacterial growth inhibition incubated for 8 hrs; format: functional, organism-based; settings: NCIM 2010, 8 h
[32] = tested on: Mycobacterium tuberculosis; test: Antimycobacterial activity against Mycobacterium tuberculosis H37Ra assessed as bacterial growth inhibition incubated for 8 to 12 days by XTT reduction menadione assay; format: functional; settings: time 8-12 day
[33] = tested on: Bacillus subtilis; test: Antibacterial activity against Bacillus subtilis NCIM 2079 assessed as reduction in bacterial growth incubated for 8 hrs by absorbance based assay; format: functional, organism-based; settings: NCIM 2079, 8 h
[34] = tested on: Staphylococcus aureus; test: Antibacterial activity against Staphylococcus aureus NCIM 2010 assessed as bacterial growth inhibition incubated for 8 hrs by absorbance based assay; format: functional
[35] = tested on: Epidermophyton floccosum; test: Antifungal activity against Epidermophyton floccosum assessed as fungal growth inhibition incubated for 7 days by spectrophotometry; format: functional; settings: 168 h, time 7 day
[36] = tested on: Staphylococcus aureus; test: Inhibition of EtBr efflux in Staphylococcus aureus SA-1 assessed as reduction in fluorescence intensity at 50 uM measured after 30 mins by spectrophotometry relative to control; format: functional; design: scale not given: the % may be the effect or the level left
[37] = organism: Homo sapiens; test: Induction of CaCC (unknown origin) current potentiation at 10 uM relative to control

CCOC(=O)C1=C(Nc2ccccc2)S/C(=C\c2ccc(F)c(C#N)c2)C1=O
inhibition at 10 µM [1]: 9.9%

N#Cc1ccsc1/N=C/c1ccc([N+](=O)[O-])cc1
MIC [2]: 512 µg/mL (≈ 1990 µM) | MIC [3]: 64 µg/mL (≈ 249 µM) | MIC [4]: 1020 µg/mL (≈ 3980 µM) | MIC [5]: 1020 µg/mL (≈ 3980 µM) | MIC [6]: 512 µg/mL (≈ 1990 µM)

O=C(N[C@H](CO)[C@H](O)c1ccc([N+](=O)[O-])cc1)C(Cl)Cl [CHLORAMPHENICOL]
MIC [7]: 0.05 µg/mL (≈ 0.155 µM) | MIC [8]: 0.41 µg/mL (≈ 1.27 µM) | MIC [9]: 0.05 µg/mL (≈ 0.155 µM)

CCOC(=O)C1=C(Nc2cccc([N+](=O)[O-])c2)S/C(=C\c2ccc[nH]2)C1=O
IC50 [10]: 87200 nM

COc1cc(/C=N/c2sccc2C#N)cc(OC)c1OC
MIC [2]: 128 µg/mL (≈ 423 µM) | MIC [3]: 64 µg/mL (≈ 212 µM) | MIC [4]: 256 µg/mL (≈ 847 µM) | MIC [11]: 256 µg/mL (≈ 847 µM) | MIC [12]: 128 µg/mL (≈ 423 µM)

COc1ccc2nc3cc(Cl)ccc3c(Nc3sc4c(c3C#N)CCC4)c2c1
EC50 [13]: 9600 nM | Kb [14]: 1 10^4/M

COc1ccc(OC)c(/C=C/C(=O)Nc2sc3c(c2C#N)CCC3)c1
IC50 [15]: 90 nM and 87 nM | IC50 [16]: 1350 nM | IC50 [17]: 3200 nM | IC50 at 2 days [18]: 185000 nM | IC50 [19]: 2700 nM

N#Cc1c(NC(=O)/C=C/c2ccc(O)cc2)sc2c1CCC2
IC50 [15]: 87 nM | IC50 [16]: 3400 nM | IC50 [17]: 4920 nM | IC50 at 2 days [18]: 236000 nM | IC50 [19]: 3550 nM

COc1ccc(OC)c(/C=C/C(=O)Nc2sc3c(c2C#N)CCCC3)c1
IC50 [15]: 87 nM | IC50 [16]: 2640 nM | IC50 [17]: 3500 nM | IC50 at 2 days [18]: 260000 nM | IC50 [19]: 2850 nM

COc1ccc2nc3cc(Cl)ccc3c(Nc3sc4c(c3C#N)CCCC4)c2c1
EC50 [13]: 11000 nM | Kb [14]: 1 10^4/M

C=CCNC(=S)Nc1sc2c(c1C(=O)OC)CCCC2
inhibition [20]: 40%

N#Cc1ccsc1/N=C/c1ccccc1
MIC [2]: 32 µg/mL (≈ 151 µM) | MIC [21]: 32 µg/mL (≈ 151 µM) | MIC [4]: 16 µg/mL (≈ 75.4 µM) | MIC [12]: 256 µg/mL (≈ 1210 µM) | MIC [6]: 512 µg/mL (≈ 2410 µM)

N#Cc1ccsc1/N=C/c1ccccc1[N+](=O)[O-]
MIC [4]: 32 µg/mL (≈ 124 µM) | MIC [5]: 128 µg/mL (≈ 498 µM)

COC(=O)c1c(NC(=O)Cn2cc(CNC34CC5CC(CC(C5)C3)C4)nn2)sc2c1CCCC2
IC50 [22]: 1600 nM | IC50 [23]: 1600 nM

N#Cc1c(N)sc2c1CCCC2
Activity [24]: 38% | zone of inhibition at 1280 µg/mL [25]: 1.5 mm

COC(=O)c1c(NC(=O)N[C@@H](C(=O)N[C@@H]2C(=O)N3C(C(=O)O)=C(C)CS[C@H]23)c2ccccc2)sc2c1CCCCCC2
MIC [26]: > 10 µg/mL | MIC [27]: > 10 µg/mL | EC50 [28]: 180 nM | MIC [29]: 2.35 µg/mL (≈ 3.84 µM) | MIC [30]: 0.782 µg/mL (≈ 1.28 µM) | EC50 [31]: 180 nM | EC5 [32]: 0.782 µM | EC50 [33]: 260 nM | MIC [34]: 0.46 µg/mL (≈ 0.751 µM)

N#Cc1ccsc1/N=C/c1ccc(Br)cc1
MIC [35]: 101 µM (≈ 29.4 µg/mL) | MIC [2]: 64 µg/mL (≈ 220 µM) | MIC [21]: 1020 µg/mL (≈ 3520 µM) | MIC [3]: 32 µg/mL (≈ 110 µM) | MIC [4]: 512 µg/mL (≈ 1760 µM) | MIC [5]: 128 µg/mL (≈ 440 µM) | MIC [11]: 128 µg/mL (≈ 440 µM) | MIC [12]: 1020 µg/mL (≈ 3520 µM) | MIC [6]: 512 µg/mL (≈ 1760 µM)

CCOC(=O)c1c(NC(=O)C(F)(F)F)sc2c1CCN(C(=O)CCCCCBr)C2
Activity [36]: 125%

COC(=O)c1c(NC(=O)Cn2cc(CNC34CC5CC(CC(C5)C3)C4)nn2)sc2c1CCC(C(C)(C)C)C2 (configuration not stated)
Activity [37]: 35%

CCCCCCCC(=O)N1CCc2c(sc(NC(=O)C(F)(F)F)c2C(=O)OCC)C1
Activity [36]: 85%
